Patent US20250368633A1, “AZEPINE FUSED RING COMPOUND AS RIPK1 INHIBITOR AND USE THEREOF” (ARTIVILA BIOPHARMA, priority 2022, published 2025)

How the values were obtained:
U937 cells [1] = test: EC50 of necroptosis inhibition in U937 cells (TSZ-induced, CellTiter-Glo); type: cell-based; settings: Homo sapiens, U-937; TSZ (hTNF-α, SM-164, Z-VAD-FMK) 20 hours; 10 concentration points; read-out: EC50 intervals of necroptosis inhibition in U937 cells
Outline: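 U937 cells pretreated 15 min with compound (10-point, 1:3 series), then necroptosis induced by TSZ (hTNF-α, SM-164, Z-VAD-FMK) for 20 h at 37 °C. Viability measured as ATP by CellTiter-Glo luminescence; inhibition normalised to untreated and TSZ-only wells, EC50 from four-parameter fit.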

U937 cells [2] = test: Inhibition rate of compound (1 μM) on necroptosis of U937 cells (TSZ-induced, CellTiter-Glo); type: cell-based; settings: TSZ (hTNF-α, SM-164, Z-VAD-FMK) 20 hours
Outline: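 U937 cells were pretreated 15 min with compound, then necroptosis was triggered with TSZ (Z-VAD-FMK, hTNF-α, SM-164) for 20 h at 37° C. Viability was read as ATP by CellTiter-Glo luminescence, and inhibition (%) was taken relative to no-TSZ and TSZ-only wells.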

RIPK1 kinase = biological target: T1, RIPK1 kinase (Homo sapiens, UniProt Q13546); test: In vitro RIPK1 kinase activity assay (ADP-Glo), inhibition by compounds at 1 μM; type: biochemical; settings: compound 1 μM; ATP 10 μM; MBP substrate 100 μg/mL; read-out: RIPK1 kinase activity inhibition rate range
T1 construct: purchased Promega VA7593
T1 sequence (Q13546 1-671): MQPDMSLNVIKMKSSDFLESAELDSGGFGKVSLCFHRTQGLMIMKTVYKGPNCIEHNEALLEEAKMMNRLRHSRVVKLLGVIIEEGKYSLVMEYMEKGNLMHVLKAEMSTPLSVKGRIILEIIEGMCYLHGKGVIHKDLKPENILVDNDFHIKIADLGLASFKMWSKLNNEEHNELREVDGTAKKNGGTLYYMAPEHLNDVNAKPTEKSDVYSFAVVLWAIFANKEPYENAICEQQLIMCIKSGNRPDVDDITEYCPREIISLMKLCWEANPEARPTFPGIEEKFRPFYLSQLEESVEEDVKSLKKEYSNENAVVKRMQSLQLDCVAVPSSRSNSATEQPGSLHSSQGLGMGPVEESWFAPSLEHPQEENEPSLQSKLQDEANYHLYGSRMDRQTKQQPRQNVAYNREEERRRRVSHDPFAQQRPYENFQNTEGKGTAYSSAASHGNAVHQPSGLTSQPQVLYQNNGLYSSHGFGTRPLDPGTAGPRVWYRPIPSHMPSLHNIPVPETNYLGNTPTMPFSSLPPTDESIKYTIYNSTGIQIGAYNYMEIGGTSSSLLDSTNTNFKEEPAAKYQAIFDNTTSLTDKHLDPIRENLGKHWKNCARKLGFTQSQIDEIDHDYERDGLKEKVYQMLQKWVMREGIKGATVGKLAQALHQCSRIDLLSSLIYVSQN
Outline: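 Compound and RIPK1 were preincubated 15 min at room temperature, then reacted 1 h with 10 μM ATP and 100 μg/mL MBP substrate in kinase buffer D. ADP formed was measured by ADP-Glo luminescence and converted to percent inhibition of kinase activity.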

Compound	inhibition at 1 µM (RIPK1 kinase) [%]	EC50 (U937 cells [1]) [nM]	Inhibition rate range of compounds (1 μM) on U937 cell necroptosis (U937 cells [2])
CN1C(=O)[C@@H](NC(=O)C(=O)NCCc2ccccc2)COc2ccc(C#CC3CCN(CCOCCOCC(=O)OC(C)(C)C)CC3)cc21 [Example 53, tert-butyl (S)-2-(2-(2-(4-((5-methyl-4-oxo-3-(2-oxo-2-(phenethylamino)acetamido)-2,3,4,5-tetrahydrobenzo[b][1,4]oxazepin-7-yl)ethynyl)piperidin-1-yl)ethoxy)ethoxy)acetate]	25 to 49	< 100	A (A: ≥90%)
CN1C(=O)[C@@H](NC(=O)C(=O)NCCc2ccccc2)COc2ccc(C#CC3CCN(CCOCCOCC(=O)O)CC3)cc21 [Example 54, (S)-1-(2-(2-(carboxymethoxy)ethoxy)ethyl)-4-((5-methyl-4-oxo-3-(2-oxo-2-(phenethylamino)acetamido)-2,3,4,5-tetrahydrobenzo[b][1,4]oxazepin-7-yl)ethynyl)piperidin-1-ium 2,2,2-trifluoroacetate]	50 to 74	500 to 2000	B (B: 50-89%)
Cc1ncsc1-c1ccc(CNC(=O)[C@@H]2C[C@@H](O)CN2C(=O)[C@@H](NC(=O)COCCOCCN2CCC(C#Cc3ccc4c(c3)N(C)C(=O)[C@@H](NC(=O)C(=O)NCCc3ccccc3)CO4)CC2)C(C)(C)C)cc1 [Example 55, N^1-((S)-7-((1-(2-(2-(2-(((S)-1-((2S,4R)-4-hydroxy-2-((4-(4-methylthiazol-5-yl)benzyl)carbamoyl)pyrrolidin-1-yl)-3,3-dimethyl-1-oxobutan-2-yl)amino)-2-oxoethoxy)ethoxy)ethyl)piperidin-4-yl)ethynyl)-5-methyl-4-oxo-2,3,4,5-tetrahydrobenzo[b][1,4]oxazepin-3-yl)-N^2-phenethyloxalamide]	50 to 74	< 100	A (A: ≥90%)
CN1C(=O)[C@@H](NC(=O)C(=O)NCCc2ccccc2)COc2ccc(C#CC3CCN(CCOCCOCC(=O)Nc4cccc5c4CN(C4CCC(=O)NC4=O)C5=O)CC3)cc21 (stereo partly drawn) [Example 56, N^1-((3S)-7-((1-(2-(2-(2-(2-(2,6-dioxopiperidin-3-yl)-(1-oxoisoindolin-4-yl)amino)-2-oxoethoxy)ethoxy)ethyl)piperidin-4-yl)ethynyl)-5-methyl-4-oxo-2,3,4,5-tetrahydrobenzo[b][1,4]oxazepin-3-yl)-N^2-phenethyloxalamide]	25 to 49	< 100	A (A: ≥90%)

Second part, led by results:

inhibition at 1 µM (RIPK1 kinase) [%]	Compound	EC50 (U937 cells [1]) [nM]	Inhibition rate range of compounds (1 μM) on U937 cell necroptosis (U937 cells [2])
50 to 74	CN1C(=O)[C@@H](NC(=O)C(=O)NCCc2ccccc2)COc2ccc(C#CCN3CCNCC3)cc21 [Example 49, (S)—N^1-(5-methyl-4-oxo-7-(3-(piperazin-1-yl)prop-1-yn-1-yl)-2,3,4,5-tetrahydrobenzo[b][1,4]oxazepin-3-yl)-N^2-phenethyloxalamide]	100 to 500	A (A: ≥90%)
≥ 75	CN1C(=O)[C@@H](NC(=O)C(=O)NCCc2ccccc2)COc2ccccc21 [Example 57, (S)—N^1-(5-methyl-4-oxo-2,3,4,5-tetrahydrobenzo[b][1,4]oxazepin-3-yl)-N^2-phenethyloxalamide]	100 to 500	A (A: ≥90%)
25 to 49	CN1C(=O)[C@@H](NC(=O)C(=O)NCc2ccccc2)COc2ccccc21 [Example 58, (S)—N^1-benzyl-N^2-(5-methyl-4-oxo-2,3,4,5-tetrahydrobenzo[b][1,4]oxazepin-3-yl)oxalamide]	500 to 2000	B (B: 50-89%)
25 to 49	CN1C(=O)C(NC(=O)C(=O)NCCc2ccccc2)CCc2cc(Br)ccc21 (stereo not drawn) [Example 63, N^1-(7-bromo-1-methyl-2-oxo-2,3,4,5-tetrahydro-1H-benzo[b]azepin-3-yl)-N^2-phenethyloxalamide]	100 to 500	A (A: ≥90%)
